Assay results reported in patent US20250276994A1, “CAP ANALOG FOR THE 5'-END OF EUKARYOTIC MESSENGER RNAS” (WESTFÄLISCHE WILHELMS-UNIVERSITÄT, priority 2021, published 2025).
Values belong to the compound of their own block, whether it stands above or below them.

Tests used:
T7 RNA polymerase = biological target: T1, T7 RNA polymerase (Escherichia phage T7, UniProt P00573); assay: In vitro transcription of GLuc mRNA with cap analogs, gel analysis; format: biochemical
T1 construct: purchased Thermo Scientific
Description: First, the DNA sequence coding for eGFP, Firefly luciferase (FLuc) or Gaussia luciferase (GLuc) mRNAs were amplified from pmRNA-vectors containing the respective sequence. After purification (NucleoSpin Gel and PCR Clean-up, Macherey-Nagel), the resulting linear dsDNA was used as template (200 ng) for in vitro T7 transcription performed in transcription buffer (40 mM Tris/HCl, 25 mM NaCl, 8 mM MgCl2, 2 mM spermidine(HCl)3) by adding either a A/C/UTP (0.5 mM) mix or a mix with modified nucleotides (A/m^5C/N^1-methylpseudo-UTP) (0.5 mM), GTP (0.25 mM), GpppG, m7GpppG, ApppG, DMNB or NPOM cap analog (1 mM), T7 RNA polymerase (50 U) (Thermo Scientific) and pyrophosphatase (0.1 U) (Thermo Scientific) for 4 h at 37° C. Remaining DNA template was digested in presence of 2 U DNase I for 1 h at 37° C. and then mRNAs were purified using the RNA Clean & Concentrator™-5 Kit (Zymo Research). To digest non-capped RNAs, 10 U of the RNA 5′-polyphosphatase (Epicentre) as well as the supplied reaction buffer were added to purified mRNAs. After an incubation period of 30 min at 37° C., 0.5 U of the 5′-3′ exoribonuclease XRN1 (NEB) and MgCl2 (5 mM) were added. The reaction mixture was incubated for 60 min at 37° C. Subsequently, capped mRNAs were purified using the RNA Clean & Concentrator™-5 Kit (Zymo Research).
The photocleavable 5′-cap analogs of formulas (12) and (18) were used for in vitro transcription of GLuc mRNA as described above and analysed via agarose gel electrophoresis.
“M” denotes Riboruler low range RNA ladder.

Reticulocyte Lysate = assay: In vitro translation of capped FLuc-mRNA and luminescence measurement; format: biochemical
Description: In vitro translation was performed using a eukaryotic cell free protein expression kit from Reticulocyte Lysate (Invitrogen). Experiments were performed in 12.5 μL total volume containing 20 ng of the corresponding FLuc-mRNAs, 50 μM L-methionine and 150 mM potassium acetate. Samples were mixed with 8.5 μL of the reticulocyte lysate and incubated for 90 min at 30° C. Afterwards, 2 μL of the respective translation mix were used in subsequent luminescence measurement. The translation efficiency of the reporter mRNAs was assessed in a luciferase assay using Beetle-juice Luciferase Assay Firefly (pjk). Luciferase activity was determined by adding 50 μL freshly prepared substrate solution to the translation mixture. Luminescence was monitored using a Tecan Infinite® m1000pro microplate reader with an acquisition time of 3 s (duration of signal acquisition).
The photocleavable 5′-cap analog of formula (7) was used for in vitro transcription to make FLuc mRNA as described above. This was used for in vitro translation and Luminescence measurement as described above. The commercial non-modified cap analog denoted “m^7GpppG” (Jena Bioscience) was used as positive control. Samples were irradiated for 30 seconds. The ApppG capped mRNA, which is not recognized by the translation initiation factor served as negative control, which is substracted from the other samples as it represents background activity. The experiment was performed in quadruplicates. The FLuc-mRNA capped with the photocleavable 5′-cap analog of formula (7) is denoted “ONB”.
The in vitro translation assay and luminescence measurement was performed as described above using the photocleavable 5′-cap analog of formula (12). The capped mRNA was denoted “DMNB-m^7GpCH2ppG capped FLuc-mRNA”. Samples were irradiated for 30 seconds (365 nm) or 60 seconds (405 nm). The commercial non-modified cap analog denoted “m^7GpppG” (Jena Bioscience) was used as positive control and all other samples were normalized to it. The ApppG capped mRNA, which is not recognized by the translation initiation factor served as negative control, which is substracted from the other samples as it represents background activity. The experiment was performed in triplicates, except *DMNB-m7GpCH2ppG (365 nm) which was a single determination.
The in vitro translation assay in reticulocyte lysate and luminescence measurement was performed as described above using m^7GpppG capped FLuc-mRNA caged with the photocleavable 5′-cap analog of formulas (22) and (25) (denoted “DMNB m^7GpppG” and “NPOM m^7GpppG”). Samples were irradiated for 30 seconds at 365 nm. The ApppG capped mRNA, which is not recognized by the translation initiation factor served as negative control, which was substracted from the other samples as it represents background activity. The values were normalized to the non-irradiated sample with m^7GpppG capped mRNA (100%). The experiment was performed in triplicates.
The in vitro translation assay in reticulocyte lysate and luminescence measurement was performed as described above using m^7GpppG capped FLuc-mRNA with modified nucleotides m^5C and N^1methyl-pseudouridine caged with the photocleavable 5′-cap analog of formulas (22) and (25) (denoted “DMNB m^7GpppG mod” and “NPOM m^7GpppG mod”). Samples were irradiated for 30 seconds at 365 nm. The ApppG capped mRNA, which is not recognized by the translation initiation factor served as negative control, which was substracted from the other samples as it represents background activity. The values were normalized to the non-irradiated sample with m^7GpppG capped mRNA (100%). The experiment was performed in triplicates.

HeLa cells = assay: Translation and irradiation in HeLa cells of capped GLuc-mRNA (luminescence); format: cell-based
Description: HeLa cells were transferred to a 96 well plate 20 h prior transfection. 30.000 cells/well were cultivated in growth Media (MEM, 10% FCS, 1% glutamine, 1% Penicillin, 1% Streptomycine, […] non-essential aminoacids). For transfection the growth media was exchanged for MEM-media with 0.6 μL Metafectene® Pro (0.3 μL) and 100 ng mRNA was added per well. 6 h after transfection of the cells the media was exchange by MEM-media, followed by irradiation and another MEM-media exchange. After 24 h post transfection the supernatant in the wells was used for further luminescence measurements. Values of the ApppG capped mRNA represent cap independent translation and were therefore subtracted from the other values.
In cell translation and irradiation in cell culture of mammalian HeLa cells was performed as described above. GLuc mRNA capped with the photocleavable 5′-cap analog of formula (12) (“DMNB”) was used and the commercial non-modified cap analog denoted “m^7GpppG” (Jena Bioscience) was used as a control. HeLa cells were either transfected with the DMNB-m^7GpCH2ppG capped mRNA (irradiated and non-irradiated before transfection) or with the natural capped mRNA (irradiated and non-irradiated before transfection). Irradiation of the mRNA containing the natural cap was performed (5 V, 600 mA) with 365 nm for 30 seconds to evaluate the resulting influence on translational efficiency. DMNB-m^7GpCH2ppG capped mRNA was irradiated in the same way or with 405 nm for 60 seconds. The ApppG capped mRNA, which is not recognized by the translation initiation factor served as negative control, which is substracted from the other samples as it represents background activity. The values were normalized to the non-irradiated m^7GpppG capped sample (100%). The experiment was performed in triplicates.
The luminescence measurement of cell culture media after translation in cells transfected with modified and non-modified GLuc mRNA was repeated using irradiation with 365 nm/405 nm for different periods of time. HeLa cells were either transfected with the GLuc mRNA capped with the photocleavable 5′-cap analog of formula (12) denoted “DMNB-m^7GpCH2ppG capped mRNA” or with the natural m^7GpppG capped mRNA. Cells transfected with the natural capped mRNA were irradiated (5 V, 600 mA) with 365 nm/405 nm for 30 s or 60 s to evaluate the resulting influence on translational efficiency. Cells transfected with DMNB-m^7GpCH2ppG capped mRNA were irradiated in the same way. The ApppG capped mRNA, which is not recognized by the translation initiation factor served as negative control, which is substracted from the other samples as it represents background activity. The values were normalized to the non-irradiated cells with m^7GpppG capped mRNA (100%). The experiment was performed in triplicates.
Luminescence measurement of cell culture media after translation of transfected modified and non-modified GLuc mRNA in cells. HeLa cells were either transfected with the NPOM-m^7GpCH2ppG capped mRNA or with the natural m^7GpppG capped mRNA. Cells transfected with the natural capped mRNA were irradiated (5 V, 600 mA) with 365 nm/405 nm for different periods of time to evaluate the resulting influence on translational efficiency. Cells transfected with NPOM-m^7GpCH2ppG capped mRNA were irradiated in the same way. The ApppG capped mRNA, which is not recognized by the translation initiation factor served as negative control, which is substracted from the other samples as it represents background activity. […]

[1] = Irradiation of caged nucleosides, conversion estimated by HPLC; format: physicochemical; settings: 450 nm; H2O:ACN (1:1)
Description: Conversions from caged compounds to uncaged compounds were estimated by integrating the peaks of a UV-spectrum that resulted from the HPLC analysis (Agilent infinity 1260).
When irradiating isolated N2-modified compounds, a final volume of 10 μL in double distilled water was irradiated using a LED (λmax=365 nm/405 nm/420 nm) and then analyzed by RP-HPLC.
A 500 μM solution of the compound 15, nitropiperonylmethyl fused via a carbamate moiety to guanosine (denoted “NPOM guanosine” or “caged guanosine”), in water/acetone/acetonitrile was irradiated in a 10 μL volume with either 405 nm for 20 s, 40 s or 60 s or with 365 nm for 5 s, 10 s or 20 s, respectively, using a LED power (input 3W and output 147 mW/cm^2). HPLC analysis was performed as described above.
Samples of the adenosine fused via a carbamate moiety to 7-(diethylamino)-4-(hydroxymethyl)-coumarin (DEACM) were irradiated with 450 nm. […] The peak at 21.1 min corresponds to the obtained compound and the peaks at 11.1 and 21.9 min correspond to the photo-cleavage products adenosine and DEACM-OH, respectively.

T1 sequence (P00573 whole entry): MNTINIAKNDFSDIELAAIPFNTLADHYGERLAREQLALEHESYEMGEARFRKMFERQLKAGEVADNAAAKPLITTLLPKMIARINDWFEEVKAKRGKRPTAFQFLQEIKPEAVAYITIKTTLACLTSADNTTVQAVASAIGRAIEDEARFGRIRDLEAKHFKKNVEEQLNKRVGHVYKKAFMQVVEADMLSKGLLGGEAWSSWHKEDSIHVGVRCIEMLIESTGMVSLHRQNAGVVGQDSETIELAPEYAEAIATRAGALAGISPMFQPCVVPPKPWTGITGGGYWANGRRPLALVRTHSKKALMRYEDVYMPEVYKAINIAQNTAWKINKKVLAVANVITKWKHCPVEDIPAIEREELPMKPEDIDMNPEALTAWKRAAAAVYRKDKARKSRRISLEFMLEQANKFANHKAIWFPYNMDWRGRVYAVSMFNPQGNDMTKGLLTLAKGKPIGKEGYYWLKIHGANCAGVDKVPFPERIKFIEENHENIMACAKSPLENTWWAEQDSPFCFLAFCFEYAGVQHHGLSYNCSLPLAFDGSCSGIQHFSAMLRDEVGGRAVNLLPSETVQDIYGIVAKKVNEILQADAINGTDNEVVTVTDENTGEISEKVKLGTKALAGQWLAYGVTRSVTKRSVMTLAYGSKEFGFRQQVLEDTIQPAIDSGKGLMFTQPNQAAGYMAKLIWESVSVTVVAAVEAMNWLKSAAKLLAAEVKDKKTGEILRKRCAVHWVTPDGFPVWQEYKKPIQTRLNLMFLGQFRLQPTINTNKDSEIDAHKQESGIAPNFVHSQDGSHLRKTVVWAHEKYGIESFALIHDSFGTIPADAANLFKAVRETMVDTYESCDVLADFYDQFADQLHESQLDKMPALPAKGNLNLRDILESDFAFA

Compound: Cn1c[n+]([C@@H]2O[C@H](COP(=O)(O)OP(=O)([O-])OP(=O)(O)OC[C@H]3O[C@@H](n4cnc5c(=O)[nH]c(N)nc54)[C@H](O)[C@@H]3O)[C@@H](O)[C@H]2O)c2nc(N)[nH]c(=O)c21 [m^7GpppG, reference compound]
incorporation of cap analog into RNA (T7 RNA polymerase): incorporated into the RNA

Compound: C[n+]1cn([C@@H]2O[C@H](COP(=O)(O)CP(=O)(O)OP(=O)(O)OC[C@H]3O[C@@H](n4cnc5c(=O)[nH]c(N)nc54)C(O)C3O)C(O)C2O)c2nc(NC(=O)OCc3ccccc3[N+](=O)[O-])[nH]c(=O)c21 (stereo partly drawn) [compound 7, P1-(N^2-(2-Nitrobenzyl)oxycarbonyl-7-methylguanosin-5′-yl)-P3-guanosin-5′-yl 1,2-methylenetriphosphate]
in vitro translation (luminescence) after irradiation (Reticulocyte Lysate; capped FLuc-mRNA, irradiated for 30 seconds): partially restored
in vitro translation (luminescence), non-irradiated (Reticulocyte Lysate; capped FLuc-mRNA, non-irradiated, normalized to m^7GpppG capped mRNA): successfully inhibited to a high degree
translation efficiency (luminescence of cell supernatant) (HeLa cells; differently capped GLuc mRNAs, normalized to m^7GpppG, single determination): impacts the translation efficiency in an inhibiting way

photo-cleavage upon irradiation (HPLC) [1]: photocleavable
Compound: CCN(CC)c1ccc2c(COC(=O)Nc3ncnc4c3ncn4[C@@H]3O[C@H](CO)[C@H](O)C3O)cc(=O)oc2c1 (stereo partly drawn)

Compound: CC(OC(=O)Nc1nc2c(c(=O)[nH]1)[n+](C)cn2[C@@H]1O[C@H](COP(=O)(O)CP(=O)(O)OP(=O)(O)OC[C@H]2O[C@@H](n3cnc4c(=O)[nH]c(N)nc43)C(O)C2O)C(O)C1O)c1cc2c(cc1[N+](=O)[O-])OCO2 (stereo partly drawn) [compound 18, P1-(N^2-(1-(6-nitrobenzo[d][1,3]dioxol-5-yl)ethyl)oxycarbonyl-7-methylguanosin-5′-yl)-P3-guanosin-5′-yl 1,2-methylenetriphosphate]
incorporation of cap analog into RNA (T7 RNA polymerase): incorporated into the RNA
translation in cells (luminescence) after irradiation of the cells (HeLa cells; GLuc mRNA, transfected cells irradiated 15 s, 25 s or 30 s, increase at 365 nm): significant increase of translation

Compound: CC(OC(=O)Nc1nc2c(c(=O)[nH]1)[n+](C)cn2[C@@H]1O[C@H](COP(=O)(O)OP(=O)(O)OP(=O)(O)OC[C@H]2O[C@@H](n3cnc4c(=O)[nH]c(N)nc43)C(O)C2O)C(O)C1O)c1cc2c(cc1[N+](=O)[O-])OCO2 (stereo partly drawn) [compound 25, P1-(N^2-(1-(6-nitrobenzo[d][1,3]dioxol-5-yl)ethyl)oxycarbonyl-7-methylguanosin-5′-yl)-P3-guanosin-5′-yl triphosphate]
in vitro translation (luminescence) after irradiation (Reticulocyte Lysate; capped FLuc-mRNA with modified nucleotides m^5C and N^1methyl-pseudouridine, 30 seconds at 365 nm): marked increase of translation
in vitro translation (luminescence) after irradiation (Reticulocyte Lysate; capped FLuc-mRNA, regular nucleotides, 30 seconds at 365 nm): marked increase of translation
